In patent US20130071414A1, “ENGINEERED CD19-SPECIFIC T LYMPHOCYTES THAT COEXPRESS IL-15 AND AN INDUCIBLE CASPASE-9 BASED SUICIDE GENE FOR THE TREATMENT OF B-CELL MALIGNANCIES” (priority 2011, published 2013):

Legend:
[1] = system: iC9/CAR.19/IL-15^+ T cells expressing eGFP-FFLuc; test: In vivo validation of the suicide gene, Raji-engrafted mice with labeled iC9/CAR.19/IL-15^+ T cells; set-up: species or system SCID mice; conditions: Raji i.v., after CID i.p.
Protocol: In vivo validation of the suicide gene. To evaluate the functionality of the suicide gene, mice bearing tumor cells and receiving iC9/CAR.19/IL-15^+ T cells labeled with the eGFP-FFluc gene were treated with CID ([…]) i.p. 2 to 3 doses every other day.^27 CID treatment was initiated when the T-cell bioluminescent signal was exponentially increasing, indicating active expansion of the transgenic cells. Mice were then imaged as described above.
Mice were engrafted i.v. with Raji tumor cells and then infused with eGFP-FFLuc labeled iC9/CAR.19/IL-15^+ T cells. These cells localized and expanded at the tumor site by day 14 after infusion as assessed by bioluminescence measurement (FIG. 6b).

[2] = system: inducible caspase-9 suicide gene in iC9/CAR.19/IL-15^+ T cells; conditions: previous observation (ref 27); cited from earlier work

In the case of `CC[C@H](C(=O)N1CCCC[C@H]1C(=O)O[C@H](CCc1ccc(OC)c(OC)c1)c1cccc(OCC(=O)NCC(CNC(=O)COc2cccc([C@@H](CCc3ccc(OC)c(OC)c3)OC(=O)[C@@H]3CCCCN3C(=O)[C@@H](CC)c3cc(OC)c(OC)c(OC)c3)c2)CN(C)C)c1)c1cc(OC)c(OC)c(OC)c1` [CID, AP20187], the “T-cell bioluminescence after administration of the CID” value [1] is given as 1.3×10^5±3×10^4 p/s/cm^2/sr and the “Fraction of cells that escape apoptosis/necrosis shortly after exposure to the dimerizer drug” value [2] is given as less than 10%.
